Reference: ChEMBL document CHEMBL1134712, “2-Aryl indole NK1 receptor antagonists: optimisation of indole substitution” (Bioorg Med Chem Lett, 2001)

Assays:
Substance-P receptor = Substance-P receptor (Homo sapiens, UniProt P25103); assay: Concentration required for displacement of [125I]-labeled substance P from cloned hNK1 receptor expressed in CHO cells; assay type: cell-based
Gerbillinae [1] = assay: Percent inhibition of gerbil foot-tapping at 1 mg/kg, iv after pre-treatment time of 2 hr; assay type: functional
Rattus norvegicus [2] = species: Rattus norvegicus; assay: Systemic AUC was determined by pharmacokinetic study conducted in portal vein cannulated rats; assay type: ADME, organism-based; conditions: in vivo
Rattus norvegicus [3] = species: Rattus norvegicus; assay: Hepatic portal AUC was determined by pharmacokinetic study conducted in portal vein cannulated rats; assay type: ADME, organism-based; conditions: in vivo
Gerbillinae [4] = assay: Percent inhibition of foot-tapping at 1 mg/kg, iv after pre-treatment time of 2 hr […]; assay type: functional
Gerbillinae [5] = assay: Percent inhibition of gerbil foot-tapping at 1 mg/kg, iv immediately following pre-treatment […]; assay type: functional
[6] = Plasma clearance rate determined in rats; assay type: ADME, organism-based; conditions: rat, read-out: Clearance rate
[7] = Percent oral bioavailability determined in rats; assay type: ADME, organism-based; conditions: rat, in vivo, read-out: Bioavailabiility
Gerbillinae [8] = assay: In vivo inhibitory dose determined in the gerbil foot-tapping assay after intravenous administration; assay type: functional; conditions: read-out: ID50 (the source's name)

Chain of Substance-P receptor (P25103 whole entry): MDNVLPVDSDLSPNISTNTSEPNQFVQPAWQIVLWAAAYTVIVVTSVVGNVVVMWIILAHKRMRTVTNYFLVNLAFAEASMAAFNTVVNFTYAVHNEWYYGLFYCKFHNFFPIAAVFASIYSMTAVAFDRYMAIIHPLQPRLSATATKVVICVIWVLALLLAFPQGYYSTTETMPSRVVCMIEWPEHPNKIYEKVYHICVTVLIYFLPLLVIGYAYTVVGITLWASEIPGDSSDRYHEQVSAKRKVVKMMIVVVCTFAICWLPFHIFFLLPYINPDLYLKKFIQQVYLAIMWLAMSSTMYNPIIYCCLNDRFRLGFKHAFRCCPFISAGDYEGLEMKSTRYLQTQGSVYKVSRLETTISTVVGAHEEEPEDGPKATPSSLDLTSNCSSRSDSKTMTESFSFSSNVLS

SMILES | IC50 (Substance-P receptor) [nM] | further results
COc1ccccc1N1CCN(C(=O)CCc2c(-c3ccc(Cl)cc3)[nH]c3c(Cl)cc(Cl)cc23)CC1 | 14 | –
COc1ccccc1N1CCN(C(=O)CCc2c(-c3ccc(Cl)cc3)[nH]c3ccccc23)CC1 | 31 | –
Cn1c(-c2ccc(Cl)cc2)c(CCC(=O)N2CCC(O)(Cc3ccccc3)CC2)c2cnccc21 | 41 | –
COc1ccccc1N1CCN(C(=O)CCc2c(-c3ccc(Cl)cc3)[nH]c3ccc(C)cc23)CC1 | 0.6 | –
COc1ccccc1N1CCN(C(=O)CCc2c(-c3ccc(Cl)cc3)[nH]c3ccc(Cl)cc23)CC1 | 0.89 | –
Cn1c(-c2ccc(Cl)cc2)c(CCC(=O)N2CCC(O)(Cc3ccccc3)CC2)c2cc(-c3cccnc3)ccc21 | 5.5 | –
COc1ccccc1N1CCN(C(=O)CCc2c(-c3ccc(Br)cc3)[nH]c3ccc(C)cc23)CC1 | 1 | –
Cn1c(-c2ccc(Cl)cc2)c(CCC(=O)N2CCC(O)(Cc3ccccc3)CC2)c2cc(-n3cccc3)ccc21 | 2.3 | –
Cn1c(-c2ccc(Cl)cc2)c(CCC(=O)N2CCC(O)(Cc3ccccc3)CC2)c2cc(-c3ccccn3)ccc21 | 1.7 | –
O=C(CCc1c(-c2ccc(Cl)cc2)nc2ccc(Cl)cn12)N1CCC(O)(Cc2ccccc2)CC1 | 0.78 | –
CC(=O)c1ccc2c(c1)c(CCC(=O)N1CCC(O)(Cc3ccccc3)CC1)c(-c1ccc(Cl)cc1)n2C | 0.19 | inhibition in vivo at 1 mg/kg (Gerbillinae [1]): 14%
COc1ccccc1N1CCN(C(=O)CCc2c(-c3ccccc3)[nH]c3ccc(F)cc23)CC1 | 87 | –
Cn1c(-c2ccc(Cl)cc2)c(CCC(=O)N2CCC(O)(Cc3ccccc3)CC2)c2cc(Br)ccc21 | 0.22 | –
Cn1c(-c2ccc(Cl)cc2)c(CCC(=O)N2CCC(O)(Cc3ccccc3)CC2)c2cc(-c3ccco3)ccc21 | 0.79 | –
Cn1c(-c2ccc(Cl)cc2)c(CCC(=O)N2CCC(O)(Cc3ccccc3)CC2)c2nc(Cl)ccc21 | 2.6 | –
COc1ccccc1N1CCN(C(=O)CCc2c(-c3ccc(Cl)cc3)[nH]c3cc(Cl)cc(Cl)c23)CC1 | 570 | –
C=Cc1ccc2c(c1)c(CCC(=O)N1CCC(O)(Cc3ccccc3)CC1)c(-c1ccc(Cl)cc1)n2C | 0.27 | –
Cn1c(-c2ccc(Cl)cc2)c(CCC(=O)N2CCC(O)(Cc3ccccc3)CC2)c2cc(Cl)cnc21 | 0.15 | AUC (Rattus norvegicus [2]): 0.008 µg·h/mL; AUC (Rattus norvegicus [3]): 0.0968 µg·h/mL; inhibition in vivo at 1 mg/kg (Gerbillinae [4]): 10%; inhibition in vivo at 1 mg/kg (Gerbillinae [5]): 100%
COc1ccccc1N1CCN(C(=O)CCc2c(-c3ccccc3)[nH]c3ccc(Cl)cc23)CC1 | 5.6 | –
Cn1c(-c2ccc(Cl)cc2)c(CCC(=O)N2CCC(O)(Cc3ccccc3)CC2)c2cc(Cl)ccc21 | 0.16 | clearance [6]: 1.86 L/h/kg; bioavailability [7]: 2.3%; AUC (Rattus norvegicus [2]): < 0.004 µg·h/mL; AUC (Rattus norvegicus [3]): 0.0247 µg·h/mL; ED50 (Gerbillinae [8]): 0.3 mg/kg
Cn1c(-c2ccc(Cl)cc2)c(CCC(=O)N2CCC(O)(Cc3ccccc3)CC2)c2cc(N3CCOCC3)ccc21 | 6.3 | –
Cn1c(-c2ccc(Cl)cc2)c(CCC(=O)N2CCC(O)(Cc3ccccc3)CC2)c2cc(-c3ccncc3)ccc21 | 5.5 | –
COc1ccccc1N1CCN(C(=O)CCc2c(-c3ccc(Cl)cc3)[nH]c3cc(Cl)ccc23)CC1 | 4.9 | –
Cn1c(-c2ccc(Cl)cc2)c(CCC(=O)N2CCC(O)(Cc3ccccc3)CC2)c2cc(N3CCCCC3)ccc21 | 3.3 | –
COc1ccccc1N1CCN(C(=O)CCc2c(-c3ccc(Cl)cc3)[nH]c3cccc(Cl)c23)CC1 | 950 | –
Cn1c(-c2ccc(Cl)cc2)c(CCC(=O)N2CCC(O)(Cc3ccccc3)CC2)c2cc(Cl)ncc21 | 0.22 | –
COc1ccccc1N1CCN(C(=O)CCc2c(-c3ccc(Cl)cc3)[nH]c3ccc(OC(F)(F)F)cc23)CC1 | 8.9 | –
